Experimental data reported in ChEMBL document CHEMBL4819026, “4-Oxoquinolines and monoamine oxidase: When tautomerism matters” (Eur J Med Chem, 2021).
pIC50: −log10 of the molar value.

How the values were obtained:
[1] = target: T1, Amine oxidase [flavin-containing] A (Homo sapiens, UniProt P21397); assay: Inhibition of recombinant human MAOA using kynuramine as substrate measured for 30 mins by fluorescence spectrophotometric assay
T1 sequence (P21397 whole entry): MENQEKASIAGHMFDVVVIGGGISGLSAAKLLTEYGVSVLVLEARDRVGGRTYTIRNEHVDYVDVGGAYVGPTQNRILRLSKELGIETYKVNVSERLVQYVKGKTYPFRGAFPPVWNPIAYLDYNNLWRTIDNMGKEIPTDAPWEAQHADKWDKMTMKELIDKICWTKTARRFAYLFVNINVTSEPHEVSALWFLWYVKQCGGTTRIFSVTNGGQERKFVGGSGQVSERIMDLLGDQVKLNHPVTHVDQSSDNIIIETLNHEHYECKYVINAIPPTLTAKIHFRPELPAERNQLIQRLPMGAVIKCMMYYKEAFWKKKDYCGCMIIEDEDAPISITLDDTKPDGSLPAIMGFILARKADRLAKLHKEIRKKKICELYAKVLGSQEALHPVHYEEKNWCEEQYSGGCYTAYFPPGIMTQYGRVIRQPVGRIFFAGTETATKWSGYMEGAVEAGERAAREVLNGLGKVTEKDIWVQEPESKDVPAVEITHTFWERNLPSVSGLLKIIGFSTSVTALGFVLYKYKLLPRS

[2] = target: T2, Amine oxidase [flavin-containing] B (Homo sapiens, UniProt P27338); assay: Inhibition of recombinant human MAOB using kynuramine as substrate measured for 30 mins by fluorescence spectrophotometric assay
T2 sequence (P27338 whole entry): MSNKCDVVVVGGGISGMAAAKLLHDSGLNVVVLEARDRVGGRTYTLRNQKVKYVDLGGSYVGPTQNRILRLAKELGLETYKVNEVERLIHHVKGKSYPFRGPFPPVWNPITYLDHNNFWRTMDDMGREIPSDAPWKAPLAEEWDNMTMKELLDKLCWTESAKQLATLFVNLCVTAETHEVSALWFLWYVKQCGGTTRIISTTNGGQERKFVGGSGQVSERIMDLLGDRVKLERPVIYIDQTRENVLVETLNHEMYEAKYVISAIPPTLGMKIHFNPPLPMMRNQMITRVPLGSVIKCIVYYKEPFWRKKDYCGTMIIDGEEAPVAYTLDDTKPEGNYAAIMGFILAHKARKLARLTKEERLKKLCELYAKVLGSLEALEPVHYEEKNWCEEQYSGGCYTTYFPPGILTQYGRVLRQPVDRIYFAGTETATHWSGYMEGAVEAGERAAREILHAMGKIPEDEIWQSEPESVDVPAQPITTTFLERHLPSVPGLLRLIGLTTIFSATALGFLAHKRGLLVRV

[3] = species on record: Homo sapiens; assay: Selectivity index, ratio of IC50 for inhibition of human MAOA to IC50 for inhibition of human MAOB
[4] = Cytotoxicity against differentiated human SH-SY5Y cells assessed as cell viability at 10 uM after 24 hrs by resazurin reduction assay relative to control; type: cell-based; conditions: read-out: Activity
[5] = test system: SH-SY5Y; assay: Cytotoxicity against differentiated human SH-SY5Y cells assessed as cell viability at 1 to 10 uM after 24 hrs by neutral red uptake assay relative to control; type: cell-based; conditions: dose 1-10 µM
[6] = test system: SH-SY5Y; assay: Cytotoxicity against differentiated human SH-SY5Y cells assessed as cell viability at 1 to 10 uM after 24 hrs by SRB assay relative to control; type: cell-based; conditions: dose 1-10 µM
[7] = target: T1, Amine oxidase [flavin-containing] A; assay: Inhibition of recombinant human MAOA using kynuramine as substrate at 10 uM measured for 30 mins by fluorescence spectrophotometric assay relative to control; conditions: 0.5 h
[8] = target: T2, Amine oxidase [flavin-containing] B; assay: Inhibition of recombinant human MAOB using kynuramine as substrate at 10 uM measured for 30 mins by fluorescence spectrophotometric assay relative to control; conditions: 0.5 h

## Cn1cc(C(=O)Nc2cccc(Cl)c2)c(=O)c2ccccc21
[1]
  pIC50: 2.13
[2]
  pIC50: 4.54
[3]
  Ratio IC50: 258
[4]
  viability at 24 h, 10 µM: > 90%
[5]
  Activity: Non-Toxic
[6]
  Activity: Non-Toxic

## O=C(Nc1cccc(Cl)c1)c1c[nH]c2ccccc2c1=O
[7]
  inhibition at 10 µM: 8%
[8]
  inhibition at 10 µM: 40%

## Cn1cc(C(=O)Nc2ccc(Cl)c(Cl)c2)c(=O)c2ccccc21
[2]
  pIC50: 5.28
[7]
  inhibition at 10 µM: 38%
[3]
  Ratio IC50: > 1890
[4]
  viability at 24 h, 10 µM: > 90%
[5]
  Activity: Non-Toxic
[6]
  Activity: Non-Toxic

## Cc1ccc(NC(=O)c2cn(C)c3ccccc3c2=O)cc1C
[1]
  pIC50: 2.94
[2]
  pIC50: 4.08
[3]
  Ratio IC50: 19.6
[5]
  Activity: Non-Toxic
[6]
  Activity: Non-Toxic

## Cc1ccc(NC(=O)c2c[nH]c3ccccc3c2=O)cc1C
[7]
  inhibition at 10 µM: 15%
[8]
  inhibition at 10 µM: 35%

## O=C(Nc1ccc(Cl)c(Cl)c1)c1c[nH]c2ccccc2c1=O
[1]
  pIC50: 2.76
[2]
  pIC50: 4.95
[3]
  Ratio IC50: 157
[5]
  Activity: Non-Toxic
[6]
  Activity: Non-Toxic
